Results reported in ChEMBL document CHEMBL4602659, “β,β-Dimethylacrylshikonin Induces Apoptosis in Melanoma Cell Lines by NOXA Upregulation” (J Nat Prod, 2020).
Activity calls are given as the source filed them. No cut-off for these calls is given here.

Key:
MUGMel1 [1] = experiment: Induction of apoptosis in human MUGMel1 cells assessed as viable cells at IC50 concentration after 24 hrs by Annexin V/SYTOX Green based flow cytometric analysis (reference value: 95.13%); type: functional
WM164 [2] = experiment: Induction of apoptosis in human WM164 cells treated with scrambled si-RNA assessed as up regulation of NOXA protein expression at IC50 concentration after 24 hrs by Western blot analysis; type: functional, cell-based
WM164 [3] = experiment: Induction of apoptosis in human WM164 cells assessed as increase in caspase -3 activity at IC50 concentration after 24 hrs by Alexa Fluor 647 antibody based flow cytometric analysis; type: functional, cell-based
MRC5 [4] = experiment: Cytotoxicity against human MRC5 cells assessed as reduction in cell viability after 24 hrs by EZ4U reagent based spectrophotometric method; type: functional; conditions: MRC5, 24 h
SBcl2 [5] = experiment: Induction of apoptosis in human SBcl2 cells assessed as necrotic cells at IC50 concentration after 6 hrs by Annexin V/SYTOX Green based flow cytometric analysis (reference value: 0.17%); type: functional
WM164 [6] = experiment: Antitumour activity against human WM164 cells xenografted in NU(NCr)-Foxn1 mouse assessed as decrease in tumour size at 2 ug/g administered for three consecutive days with 1 day interval for four cycle; type: functional, cell-based
WM164 [7] = experiment: Induction of apoptosis in human WM164 cells assessed as necrotic cells at IC50 concentration after 6 hrs by Annexin V/SYTOX Green based flow cytometric analysis (reference value: 0.81%); type: functional
SBcl2 [8] = experiment: Cytotoxicity against human SBcl2 cells harboring NRAS Q61I mutant assessed as reduction in cell viability after 72 hrs by EZ4U reagent based spectrophotometric method; type: functional; conditions: SBcl2, 72 h
WM793 [9] = experiment: Induction of apoptosis in human WM793 cells assessed as effect on BAD mRNA expression at IC50 concentration after 6 to 24 hrs by RT-qPCR analysis; type: functional, cell-based
[10] = Cytotoxicity against human A375-S2 cells assessed as reduction in cell viability after 48 hrs by MTT assay; type: functional, cell-based; conditions: A375-S2, 48 h
MUGMel1 [11] = experiment: Induction of apoptosis in human MUGMel1 cells assessed as up regulation of NOXA protein expression at IC50 concentration after 24 hrs by Western blot analysis; type: functional, cell-based
WM164 [12] = experiment: Antitumour activity against human WM164 cells xenografted in NU(NCr)-Foxn1 mouse assessed as increase in caspase -activity at 1 to 4 ug/g administered for three consecutive days with 1 day interval for four cycle by hematoxylin and eosin staining based microscopic analysis; type: functional, cell-based
WM164 [13] = experiment: Induction of apoptosis in human WM164 cells assessed as early apoptotic cells at IC50 concentration after 6 hrs by Annexin V/SYTOX Green based flow cytometric analysis (reference value: 3.01%); type: functional
WM164 [14] = experiment: Cytotoxicity against human WM164 cells harboring BRAF V600E mutant assessed as reduction in cell viability after 24 hrs by EZ4U reagent based spectrophotometric method; type: functional; conditions: WM164, 24 h
MUGMel1 [15] = experiment: Induction of apoptosis in human MUGMel1 cells assessed as early apoptotic cells at IC50 concentration after 6 hrs by Annexin V/SYTOX Green based flow cytometric analysis (reference value: 2.55%); type: functional
SBcl2 [16] = experiment: Induction of apoptosis in human SBcl2 cells assessed as up regulation of NOXA protein expression at IC50 concentration after 24 hrs by Western blot analysis; type: functional, cell-based
WM793 [17] = experiment: Induction of apoptosis in human WM793 cells assessed as increase in caspase -3 activity at IC50 concentration after 24 hrs by Alexa Fluor 647 antibody based flow cytometric analysis; type: functional, cell-based
MUGMel1 [18] = experiment: Induction of apoptosis in human MUGMel1 cells assessed as necrotic cells at IC50 concentration after 6 hrs by Annexin V/SYTOX Green based flow cytometric analysis (reference value: 0.39%); type: functional
MUGMel2 [19] = experiment: Induction of apoptosis in human MUGMel2 cells assessed as up regulation of NOXA at IC50 concentration after 6 to 24 hrs by RT-qPCR analysis relative to control; type: functional
MUGMel2 [20] = experiment: Cytotoxicity against human MUGMel2 cells harboring NRAS pQ61K mutant assessed as reduction in cell viability after 72 hrs by EZ4U reagent based spectrophotometric method; type: functional; conditions: MUGMel2, 72 h
WM164 [21] = experiment: Induction of apoptosis in human WM164 cells assessed as effect on BAX protein expression at IC50 concentration after 24 hrs by Western blot analysis; type: functional, cell-based
WM164 [22] = experiment: Induction of apoptosis in human WM164 cells assessed as necrotic cells at IC50 concentration after 24 hrs by Annexin V/SYTOX Green based flow cytometric analysis (reference value: 0.85%); type: functional
MUGMel2 [23] = experiment: Induction of apoptosis in human MUGMel2 cells assessed as necrotic cells at IC50 concentration after 24 hrs by Annexin V/SYTOX Green based flow cytometric analysis (reference value: 1.1%); type: functional
MUGMel1 [24] = experiment: Cytotoxicity against human MUGMel1 cells assessed as reduction in cell viability after 24 hrs by EZ4U reagent based spectrophotometric method; type: functional; conditions: MUGMel1, 24 h
WM793 [25] = experiment: Induction of apoptosis in human WM793 cells assessed as necrotic cells at IC50 concentration after 24 hrs by Annexin V/SYTOX Green based flow cytometric analysis (reference value: 0.17%); type: functional
WM793 [26] = experiment: Induction of apoptosis in human WM793 cells assessed as up regulation of NOXA at IC50 concentration after 6 to 24 hrs by RT-qPCR analysis; type: functional, cell-based
MUGMel2 [27] = experiment: Cytotoxicity against human MUGMel2 cells harboring NRAS pQ61K mutant assessed as reduction in cell viability after 24 hrs by EZ4U reagent based spectrophotometric method; type: functional; conditions: MUGMel2, 24 h
MUGMel2 [28] = experiment: Induction of apoptosis in human MUGMel2 cells assessed as late apoptotic cells at IC50 concentration after 6 hrs by Annexin V/SYTOX Green based flow cytometric analysis (reference value: 5.69%); type: functional
SBcl2 [29] = experiment: Induction of apoptosis in human SBcl2 cells assessed as late apoptotic cells at IC50 concentration after 6 hrs by Annexin V/SYTOX Green based flow cytometric analysis (reference value: 14.91%); type: functional
WM793 [30] = experiment: Induction of apoptosis in human WM793 cells assessed as early apoptotic cells at IC50 concentration after 24 hrs by Annexin V/SYTOX Green based flow cytometric analysis (reference value: 2.64%); type: functional
MUGMel2 [31] = experiment: Induction of apoptosis in human MUGMel2 cells assessed as effect on PUMA protein expression at IC50 concentration after 24 hrs by Western blot analysis; type: functional, cell-based
WM164 [32] = experiment: Induction of apoptosis in human WM164 cells assessed as late apoptotic cells at IC50 concentration after 24 hrs by Annexin V/SYTOX Green based flow cytometric analysis (reference value: 1.81%); type: functional
WM164 [33] = experiment: Induction of apoptosis in human WM164 cells assessed as effect on PUMA protein expression at IC50 concentration after 24 hrs by Western blot analysis; type: functional, cell-based
MRC5 [34] = experiment: Cytotoxicity against human MRC5 cells assessed as reduction in cell viability after 48 hrs by EZ4U reagent based spectrophotometric method; type: functional
WM164 [35] = experiment: Cytotoxicity against human WM164 cells harboring BRAF V600E mutant assessed as reduction in cell viability after 48 hrs by EZ4U reagent based spectrophotometric method; type: functional; conditions: WM164, 48 h

## CC(C)=CC[C@@H](OC(=O)C=C(C)C)C1=CC(=O)c2c(O)ccc(O)c2C1=O [DIMETHYLACRYLSHIKONIN]
MUGMel1 [1]
  Activity: 49.48%
WM164 [2]
  Activity: Active
WM164 [3]
  Activity: Active
MRC5 [4]
  IC50: 9.5 µM
SBcl2 [5]
  Activity: 0.06%
WM164 [6]
  Activity: inactive
WM164 [7]
  Activity: 0.24%
SBcl2 [8]
  IC50: 1.2 µM
WM793 [9]
  Activity: inactive
[10]
  IC50: 7.1 µM
MUGMel1 [11]
  Activity: Active
WM164 [12]
  Activity: Active
WM164 [13]
  Activity: 2.47%
WM164 [14]
  IC50: 3.8 µM
MUGMel1 [15]
  Activity: 3.51%
SBcl2 [16]
  Activity: Active
WM793 [17]
  Activity: Active
MUGMel1 [18]
  Activity: 0.11%
MUGMel2 [19]
  fold change (FC): 6
MUGMel2 [20]
  IC50: 1.7 µM
WM164 [21]
  Activity: inactive
WM164 [22]
  Activity: 0.52%
MUGMel2 [23]
  Activity: 0.16%
MUGMel1 [24]
  IC50: 1.9 µM
WM793 [25]
  Activity: 0.22%
WM793 [26]
  Activity: inactive
MUGMel2 [27]
  IC50: 5.1 µM
MUGMel2 [28]
  Activity: 13.53%
SBcl2 [29]
  Activity: 70.21%
WM793 [30]
  Activity: 13.71%
MUGMel2 [31]
  Activity: inactive
WM164 [32]
  Activity: 11.6%
WM164 [33]
  Activity: inactive
MRC5 [34]
  IC50: Not Active
WM164 [35]
  IC50: 3 µM
